# Experimental data as given in US11884647B2, “Compounds and methods for targeting pathogenic blood vessels” (THE REGENTS OF THE UNIVERSITY OF CALIFORNIA, priority 2019, dated 2024).
# System: tumor endothelial cells (LL/2 lung cancer tumor)
# Experiment: Lung LL2 ex vivo model of tumor angiogenesis
# Assay type: cell-based, mouse
# Details: Lung LL2 ex vivo; Conc. 20 μm; 48 hrs
# Method in brief: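 Mouse LL2 tumor fragments (~0.5×0.5×0.3 mm) embedded in Matrigel and grown in endothelial growth medium at 37° C until endothelial outgrowth (about 4 days) before drug treatment. About 48 h after drug addition, stained 10 min with fluorescein diacetate/propidium iodide; live (green) and dead (red) cells imaged at 2× with fixed channel settings.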
row,Molecule,48 hrs (morphology observations after 48 hours)
1,"4-([1,4′:1′,4″-terpiperidin]-1″-yl)-6- (methyl(λ^1-oxidanyl)-λ^3-sulfanyl)-3-((4- (tetradecyloxy)phenyl)sulfonyl)quinoline [compound 347]",*** (100% of endothelial cells vesicularize in cell shape)

# Same assay, conditions: Lung LL2 ex vivo; Conc. 20 μm; (24 hrs)
Molecule,Cell death (24 hrs),Morphology observations (24 hrs)
"CCCCCCCCCCOc1ccc(S(=O)(=O)c2cnc3ccc([S+](C)[O-])cc3c2N2CCC(N3CCN(CCO)CC3)CC2)cc1F (stereo not drawn) [compound 291, 2-(4-(1-(3-((4-(decyloxy)-3-fluorophenyl)sulfonyl)-6-(methylsulfinyl)quinolin-4-yl)piperidin-4-yl)piperazin-1-yl)ethan-1-ol]",10%,* (50% or less of cells vesicularize in cell shape)

# Same assay, conditions: Lung LL2 ex vivo; Conc. 20 μm; drug treatment two days
row,Molecule,Cell death
1,"4-([1,4′:1′,4″-terpiperidin]-1″-yl)-6- (methyl(λ^1-oxidanyl)-λ^3-sulfanyl)-3-((4- (tetradecyloxy)phenyl)sulfonyl)quinoline [compound 347]",30%

# Same assay, conditions: Lung LL2 ex vivo; Conc. 40 μm; drug treatment two days
row,Molecule,Cell death
1,"CCCCOc1ccc(S(=O)(=O)c2cnc3ccc(SC)cc3c2N2CCC(=O)N(C)CC2)cc1 [compound 357, 1-(3-((4-butoxyphenyl)sulfonyl)-6-(methylthio)quinolin-4-yl)-4-methyl-1,4-diazepan-5-one]",0%
2,"CCCCOc1ccc(S(=O)(=O)c2cnc3ccc(SC)cc3c2N2CCC3C(COCCN3CC(C)C)C2)cc1 (stereo not drawn) [compound 352, 7-(3-((4-butoxyphenyl)sulfonyl)-6-(methylthio)quinolin-4-yl)-1-isobutyldecahydropyrido[4,3-e][1,4]oxazepine]",100%
3,"CCCCOc1ccc(S(=O)(=O)c2cnc3ccc(SC)cc3c2N2CCCN(C3COC3)CC2)cc1 [compound 355, 3-((4-butoxyphenyl)sulfonyl)-6-(methylthio)-4-(4-(oxetan-3-yl)-1,4-diazepan-1-yl)quinoline]",0%
4,"CNC(=O)c1ccc2ncc(S(=O)(=O)c3ccc(OC)cc3)c(NC)c2c1 [compound 360, 3-((4-methoxyphenyl)sulfonyl)-N-methyl-4-(methylamino)quinoline-6-carboxamide]",20%

# Same assay, conditions: Mus musculus, Endothelial cell, 48 h, read-out: Cell death
Molecule,cytotoxicity at 40 µM,cytotoxicity at 20 µM,cytotoxicity at 10 µM
"CCCCOc1ccc(S(=O)(=O)c2cnc3ccc(SC)cc3c2N2CCC(N3CCC(O)CC3)CC2)cc1 [compound 162, 1′-(3-((4-butoxyphenyl)sulfonyl)-6-(methylthio)quinolin-4-yl)-[1,4′-bipiperidin]-4-ol]",70%,–,–
"CCCCCCCCCCCCOc1ccc(S(=O)(=O)c2cnc3ccc([S+](C)[O-])cc3c2N2CCC(N3CCC(N4CCCC(O)C4)CC3)CC2)cc1 (stereo not drawn) [compound 343, 1″-(3-((4-(dodecyloxy)phenyl)sulfonyl)-6-(methylsulfinyl)quinolin-4-yl)-[1,4′:1′,4″-terpiperidin]-3-ol]",–,50%,–
"CCc1ccc(S(=O)(=O)c2cnc3ccc(OC(F)(F)F)cc3c2-n2cccc2)cc1 [compound 108, 3-((4-ethylphenyl)sulfonyl)-4-(1H-pyrrol-1-yl)-6-(trifluoromethoxy)quinoline]",–,0%,–
"CCCCCCCCCCCCCCCCOc1ccc(S(=O)(=O)c2cnc3ccc([S+](C)[O-])cc3c2N2CCC(N3CCC(N4CCCCC4)CC3)CC2)cc1 (stereo not drawn) [compound 377, 4-([1,4′:1′,4″-terpiperidin]-1″-yl)-3-((4-(hexadecyloxy)phenyl)sulfonyl)-6-(methylsulfinyl)quinoline]",–,10%,–
"COc1ccc(C2CCN(c3c(S(=O)(=O)c4ccc(OC)cc4)cnc4cc(OC)c(OC)cc34)CC2)cc1 [compound 311, 6,7-dimethoxy-4-(4-(4-methoxyphenyl)piperidin-1-yl)-3-((4-methoxyphenyl)sulfonyl)quinoline]",30%,–,–
"CCCCCCCOc1ccc(S(=O)(=O)c2cnc3ccc([S+](C)[O-])cc3c2N2CCN(CC3CCN(Cc4ccccc4)CC3)CC2)cc1 (stereo not drawn) [compound 279, 4-(4-((1-benzylpiperidin-4-yl)methyl)piperazin-1-yl)-3-((4-(heptyloxy)phenyl)sulfonyl)-6-(methylsulfinyl)quinoline]",–,100%,–
"CC(C)CCCC(C)CCOc1ccc(S(=O)(=O)c2cnc3ccc([S+](C)[O-])cc3c2N2CCC(N3CCN(CCO)CC3)CC2)cc1 (stereo not drawn) [compound 284, 2-(4-(1-(3-((4-((3,7-dimethyloctyl)oxy)phenyl)sulfonyl)-6-(methylsulfinyl)quinolin-4-yl)piperidin-4-yl)piperazin-1-yl)ethan-1-ol]",–,–,10%
"CCCCOc1ccc(S(=O)(=O)c2cnc3ccc(C(=O)OCC)cc3c2N2CCC(N3CCCC(O)C3)CC2)cc1 (stereo not drawn) [compound 177, ethyl 3-((4-butoxyphenyl)sulfonyl)-4-(3-hydroxy-[1,4′-bipiperidin]-1′-yl)quinoline-6-carboxylate]",100%,–,–
"CCCCCCCCCCCCCCCCOc1ccc(S(=O)(=O)c2cnc3ccc([S+](C)[O-])cc3c2N2CCC(N3CCC(N4CCCC(O)C4)CC3)CC2)cc1 (stereo not drawn) [compound 378, 1″-(3-((4-(hexadecyloxy)phenyl)sulfonyl)-6-(methylsulfinyl)quinolin-4-yl)-[1,4′:1′,4″- terpiperidin]-3-ol]",–,30%,–
"CCCCCCCCCCCCOc1ccc(S(=O)(=O)c2cnc3ccc([S+](C)[O-])cc3c2N2CCC(N3CCC(N4CCC(O)CC4)CC3)CC2)cc1 (stereo not drawn) [compound 374, 1″-(3-((4-(dodecyloxy)phenyl)sulfonyl)-6-(methylsulfinyl)quinolin-4-yl)-[1,4′:1′,4″-terpiperidin]-4-ol]",–,20%,–
"CNC(=O)c1ccc(C2CCN(c3c(S(=O)(=O)c4ccc(OC)cc4)cnc4cc(OC)c(OC)cc34)CC2)cc1 [compound 310, 4-(1-(6,7-dimethoxy-3-((4-methoxyphenyl)sulfonyl)quinolin-4-yl)piperidin-4-yl)-N-methylbenzamide]",10%,–,–
"CCCCCCCOc1ccc(S(=O)(=O)c2cnc3ccc(SC)cc3c2N2CCCN(CCN3CCCCC3)CC2)cc1 [compound 248, 3-((4-(heptyloxy)phenyl)sulfonyl)-6-(methylthio)-4-(4-(2-(piperidin-1-yl)ethyl)-1,4-diazepan-1-yl)quinoline]",–,60%,–
"CCCCCCCOc1ccc(S(=O)(=O)c2cnc3ccc([S+](C)[O-])cc3c2N2CCC(N3CCC(O)(c4ccccc4)CC3)CC2)cc1 (stereo not drawn) [compound 263, 1′-(3-((4-(heptyloxy)phenyl)sulfonyl)-6-(methylsulfinyl)quinolin-4-yl)-4-phenyl-[1,4′-bipiperidin]-4-ol]",–,–,100%
"CCCCCCCCCCOc1ccc(S(=O)(=O)c2cnc3ccc([S+](C)[O-])cc3c2N2CCC(N3CCCC(O)C3)CC2)cc1 (stereo not drawn) [compound 265, 1′-(3-((4-(decyloxy)phenyl)sulfonyl)-6-(methylsulfinyl)quinolin-4-yl)-[1,4′-bipiperidin]-3-ol]",–,–,20%
"CCCCCCCCCCOc1ccc(S(=O)(=O)c2cnc3ccc([S+](C)[O-])cc3c2N2CCCN(CCN3CCCCC3)CC2)cc1 (stereo not drawn) [compound 266, 3-((4-(decyloxy)phenyl)sulfonyl)-6-(methylsulfinyl)-4-(4-(2-(piperidin-1-yl)ethyl)-1,4-diazepan-1-yl)quinoline]",–,–,5%
"CCCCCCCCCCOc1ccc(S(=O)(=O)c2cnc3ccc([S+](C)[O-])cc3c2N2CCC(N3CCC(N4CCCC(O)C4)CC3)CC2)cc1 (stereo not drawn) [compound 288, 1″-(3-((4-(decyloxy)phenyl)sulfonyl)-6-(methylsulfinyl)quinolin-4-yl)-[1,4′:1′,4″- terpiperidin]-3-ol]",–,–,50%
"COc1ccc(S(=O)(=O)c2cnc3ccc(SC)cc3c2NN2CCN(C)CC2)cc1 [compound 226, 3-((4-methoxyphenyl)sulfonyl)-N-(4-methylpiperazin-1-yl)-6-(methylthio)quinolin-4-amine]",10%,–,–
"CCCCCCCOc1ccc(S(=O)(=O)c2cnc3ccc([S+](C)[O-])cc3c2N2CCN(C3CCN(Cc4ccccc4)C3)CC2)cc1 (stereo not drawn) [compound 278, 4-(4-(1-benzylpyrrolidin-3-yl)piperazin-1-yl)-3-((4-(heptyloxy)phenyl)sulfonyl)-6-(methylsulfinyl)quinoline]",–,–,50%
"CCCCCCCOc1ccc(S(=O)(=O)c2cnc3ccc(SC)cc3c2N2CCC(N3CCC(O)(c4ccccc4)CC3)CC2)cc1 [compound 262, 1′-(3-((4-(heptyloxy)phenyl)sulfonyl)-6-(methylthio)quinolin-4-yl)-4-phenyl-[1,4′-bipiperidin]-4-ol]",–,–,20%
"CCN(CC)CCCN1CCN(c2c(S(=O)(=O)c3ccc(OC)cc3)cnc3cc(OC)c(OC)cc23)CC1 [compound 302, 3-(4-(6,7-dimethoxy-3-((4-methoxyphenyl)sulfonyl)quinolin-4-yl)piperazin-1-yl)-N,N-diethylpropan-1-amine]",70%,–,–
"CCCCOc1ccc(S(=O)(=O)c2cnc3ccc(SC)cc3c2N2CCC(N3CCSCC3)CC2)cc1 [compound 243, 4-(1-(3-((4-butoxyphenyl)sulfonyl)-6-(methylthio)quinolin-4-yl)piperidin-4-yl)thiomorpholine]",20%,–,–
"CCCCCCCCCCOc1ccc(S(=O)(=O)c2cnc3ccc([S+](C)[O-])cc3c2N2CCC(N3CCN(CCO)CC3)CC2)cc1 (stereo not drawn) [compound 268, 2-(4-(1-(3-((4-(decyloxy)phenyl)sulfonyl)-6-(methylsulfinyl)quinolin-4-yl)piperidin-4-yl)piperazin-1-yl)ethan-1-ol]",–,50%,–
"CCOC(=O)c1ccc2ncc(S(=O)(=O)c3ccc(OC)cc3)c(-n3cnnn3)c2c1 [compound 185, ethyl 3-((4-methoxyphenyl)sulfonyl)-4-(1H-tetrazol-1-yl)quinoline-6-carboxylate]",–,–,30%
"CCCCCCCOc1ccc(S(=O)(=O)c2cnc3ccc(SC)cc3c2N2CCN(CC3CCN(Cc4ccccc4)CC3)CC2)cc1 [compound 275, 4-(4-((1-benzylpiperidin-4-yl)methyl)piperazin-1-yl)-3-((4-(heptyloxy)phenyl)sulfonyl)-6-(methylthio)quinoline]",–,5%,–
"CCCCCCCOc1ccc(S(=O)(=O)c2cnc3ccc(SC)cc3c2N2CCC(N3CCC(N4CCCCC4)CC3)CC2)cc1 [compound 251, 4-([1,4′:1′,4″-terpiperidin]-1″-yl)-3-((4-(heptyloxy)phenyl)sulfonyl)-6-(methylthio)quinoline]",–,60%,–
